# Data as given in patent US10865191B2, “Heterocyclic compounds useful as modulators of TNF alpha” (BRISTOL-MYERS SQUIBB COMPANY, priority 2015, dated 2020).
# Like-named read-outs stand apart in the source and are kept apart here.
# Molecular target: TNFα (Homo sapiens, UniProt P01375)
# Test: TNF induced HEK-Blue assay (NF-kB-driven secreted alkaline phosphatase reporter)
# Format: cell-based
# Conditions: TNFα 0.5 ng/mL, HEK-Blue-CD40L cells, 18 h
# Summary of the method: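 HEK-Blue-CD40L cells (NF-kB-driven SEAP reporter), 20,000/well, added after 30 min pre-incubation of compound (0.004–25 μM final) with TNFα 0.5 ng/mL final at 37 °C; 18 h incubation. SEAP read with QUANTI-Blue at 620 nm; IC50 from 4-parameter logistic fit, normalized to unstimulated and stimulated DMSO controls.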
# [1] = read-out: TNF induced HEK-Blue assay IC50 value
# [2] = TNF induced HEK-Blue assay IC50 value
# Chain of TNFα (P01375 77-233 limits assumed): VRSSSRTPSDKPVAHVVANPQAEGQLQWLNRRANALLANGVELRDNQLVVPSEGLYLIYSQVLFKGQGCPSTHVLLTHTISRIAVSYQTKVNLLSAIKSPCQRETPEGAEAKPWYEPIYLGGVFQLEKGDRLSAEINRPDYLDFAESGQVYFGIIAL
IC50 [1] [nM],IC50 [2] [nM],Compound
< 1000,–,"CC#CC(=O)N1CCN(c2ccc(-c3ccc4ncc(Cl)c(N[C@H](C)c5ccccc5F)c4c3)cn2)CC1 [Example 125, (R)-1-(4-(5-(3-chloro-4-((1-(2-fluorophenyl)ethyl)amino)quinolin-6-yl)pyridin-2-yl)piperazin-1-yl)but-2-yn-1-one]"
< 1000,–,"C[C@@H](Nc1c(Cl)cnc2ccc(-c3cnc(C(C)(C)O)nc3)cc12)c1cc(C(O)CO)ccc1F (single isomer, unassigned) [Example 400]"
< 1000,–,"COC(=O)CN1CCN(c2ncc(-c3ccc4ncc(Cl)c(N[C@@H](c5ccccc5F)C(F)F)c4c3)cn2)CC1 [Example 14, (S)-methyl 2-(4-(5-(3-chloro-4-((2,2-difluoro-1-(2-fluorophenyl)ethyl)amino)quinolin-6-yl)pyrimidin-2-yl)piperazin-1-yl)acetate]"
< 1000,–,"Cc1nc2ccc(-c3cnc(C(C)(C)O)nc3)cc2c(N[C@H](C)c2cc(C(C)(O)CO)ccc2F)c1Cl (mixture of isomers) [Example 403, 2-(3-((R)-1-((3-chloro-6-(2-(2-hydroxypropan-2-yl)pyrimidin-5-yl)-2-methylquinolin-4-yl)amino)ethyl)-4-fluorophenyl)propane-1,2-diol]"
< 1000,–,"Cc1nc2ccc(-c3cnc(C(C)(C)O)nc3)cc2c(N[C@@H](c2cc(Br)ccc2F)C(F)F)c1Cl [Example 320, (S)-2-(5-(4-((1-(5-bromo-2-fluorophenyl)-2,2-difluoroethyl)amino)-3-chloro-2-methylquinolin-6-yl)pyrimidin-2-yl)propan-2-ol]"
1000 to 10000,–,"C[C@@H](Nc1c(Cl)cnc2ccccc12)c1cc(-c2cnc(C(C)(C)O)nc2)ccc1F [Example 469, (R)-2-(5-(3-(1-((3-chloroquinolin-4-yl)amino)ethyl)-4-fluorophenyl)pyrimidin-2-yl)propan-2-ol]"
1000 to 10000,–,"Cc1cc(-c2ccc(F)c([C@@H](C)Nc3c(Cl)cnc4ccccc34)c2)cnn1 [Example 477, (R)-3-chloro-N-(1-(2-fluoro-5-(6-methylpyridazin-4-yl)phenyl)ethyl)quinolin-4-amine]"
–,< 1000,"C[C@@H](Nc1c(Cl)cnc2ccc(-c3cnc(C(C)(C)O)nc3)cc12)c1cc(C#N)ccc1F [Example 376, (R)-3-(1-((3-chloro-6-(2-(2-hydroxypropan-2-yl)pyrimidin-5-yl)quinolin-4-yl)amino)ethyl)-4-fluorobenzonitrile]"
–,< 1000,"CC(C)C(Nc1c(Cl)cnc2ccc(-c3cnc(C(C)(C)O)nc3)cc12)c1ccccc1F (stereo not drawn) [Example 189, 2-(5-(3-chloro-4-((1-(2-fluorophenyl)-2-methylpropyl)amino)quinolin-6-yl)pyrimidin-2-yl)propan-2-ol]"
10000 to 25000,–,"Cc1nc2ccc(-c3cnc(C(C)(C)O)nc3)cc2c(N[C@H](C)c2ccccc2)c1Cl [Example 322, (R)-2-(5-(3-chloro-2-methyl-4-((1-phenylethyl)amino)quinolin-6-yl)pyrimidin-2-yl)propan-2-ol]"
1000 to 10000,–,"C=CCc1ccc(F)c([C@@H](C)Nc2c(Cl)cnc3ccccc23)c1 [Example 452, (R)—N-(1-(5-allyl-2-fluorophenyl)ethyl)-3-chloroquinolin-4-amine]"
10000 to 25000,–,"Cc1nc2ncccc2c(N[C@H](C)c2cc(-c3cncnc3)ccc2F)c1Cl [Example 556, (R)-3-chloro-N-(1-(2-fluoro-5-(pyrimidin-5-yl)phenyl)ethyl)-2-methyl-1,8-naphthyridin-4-amine]"
< 1000,–,"Cc1nc2c(F)cc(-c3cnc(C(C)(C)O)nc3)cc2c(N[C@H](C)c2cc(C(N)=O)ccc2F)c1Cl [Example 303, (R)-3-(1-((3-chloro-8-fluoro-6-(2-(2-hydroxypropan-2-yl)pyrimidin-5-yl)-2-methylquinolin-4-yl)amino)ethyl)-4-fluorobenzamide]"
< 1000,–,"C[C@@H](Nc1c(Cl)cnc2ccc(-c3cnc(C(C)(C)O)nc3)cc12)c1cc(-c2ncccn2)ccc1F [Example 345, (R)-2-(5-(3-chloro-4-((1-(2-fluoro-5-(pyrimidin-2-yl)phenyl)ethyl)amino)quinolin-6-yl)pyrimidin-2-yl)propan-2-ol]"
10000 to 25000,–,"CC(CC(O)(c1ccccc1)c1ccccc1)Nc1c(Cl)cnc2ccc(-c3cnc(C(C)(C)O)nc3)cc12 (racemic) [Example 143, 3-((3-chloro-6-(2-(2-hydroxypropan-2-yl)pyrimidin-5-yl)quinolin-4-yl)amino)-1,1-diphenylbutan-1-ol]"
< 1000,–,"CC(C)(O)c1ncc(-c2ccc3ncc(Cl)c(NC(CCO)c4ccccc4F)c3c2)cn1 (racemic) [Example 167, 3-((3-chloro-6-(2-(2-hydroxypropan-2-yl)pyrimidin-5-yl)quinolin-4-yl)amino)-3-(2-fluorophenyl)propan-1-ol]"
1000 to 10000,–,"C[C@H](Nc1c(Cl)cnc2ccc(-c3cnc(C(C)(C)O)nc3)cc12)[C@H]1CCCN(S(C)(=O)=O)C1 [Example 563, 2-(5-(3-chloro-4-(((S)-1-((S)-1-(methylsulfonyl)piperidin-3-yl)ethyl)amino)quinolin-6-yl)pyrimidin-2-yl)propan-2-ol]"

IC50 [1] [nM],IC50 [2] [nM],Compound
10000 to 25000,–,"C[C@@H](Nc1c(Cl)cnc2ccccc12)c1cc(-c2cnn(CCN3CCOCC3)c2)ccc1F [Example 480, (R)-3-chloro-N-(1-(2-fluoro-5-(1-(2-morpholinoethyl)-1H-pyrazol-4-yl)phenyl)ethyl)quinolin-4-amine]"
< 1000,–,"CC(Nc1c(Cl)cnc2ccc(-c3ccc(C(C)(C)O)cc3)cc12)c1cnccn1 (racemic) [Example 198, 2-(4-(3-chloro-4-((1-(pyrazin-2-yl)ethyl)amino)quinolin-6-yl)phenyl)propan-2-ol]"
< 1000,–,"C[C@@H](Nc1c(Cl)cnc2cc(F)c(-c3cnc(N4CCC(C(C)(C)O)C4)nc3)cc12)c1ccccc1F (mixture of isomers) [Example 283, 2-(1-(5-(3-chloro-7-fluoro-4-(((R)-1-(2-fluorophenyl)ethyl)amino)quinolin-6-yl)pyrimidin-2-yl)pyrrolidin-3-yl)propan-2-ol]"
1000 to 10000,–,"Fc1ccc(Br)cc1[C@H](Nc1c(Cl)cnc2ccccc12)C(F)F [Example 509, (S)—N-(1-(5-bromo-2-fluorophenyl)-2,2-difluoroethyl)-3-chloroquinolin-4-amine]"
< 1000,–,"CC(Nc1c(Cl)cnc2ccc(-c3cnc(C(C)(C)O)nc3)cc12)c1ccccc1Cl (racemic) [Example 153, 2-(5-(3-chloro-4-((1-(2-chlorophenyl)ethyl)amino)quinolin-6-yl)pyrimidin-2-yl)propan-2-ol]"
< 1000,–,"C[C@@H](Nc1c(Cl)cnc2ccc(-c3cnc(C(C)(C)O)nc3)cc12)c1cc(N2CCOC2=O)ccc1F [Example 367, (R)-3-(3-(1-((3-chloro-6-(2-(2-hydroxypropan-2-yl)pyrimidin-5-yl)quinolin-4-yl)amino)ethyl)-4-fluorophenyl) oxazolidin-2-one]"
< 1000,–,"Cc1nc2ccc(-c3cnc(N4CCN(CC(=O)O)CC4)nc3)cc2c(N[C@H](C)c2cc(C(N)=O)ccc2F)c1Cl [Example 389, (R)-2-(4-(5-(4-((1-(5-carbamoyl-2-fluorophenyl)ethyl)amino)-3-chloro-2-methylquinolin-6-yl)pyrimidin-2-yl)piperazin-1-yl)acetic acid]"
10000 to 25000,–,"C[C@H](Nc1c(Cl)cnc2cnc(-c3cnc(N4CCN(CC(=O)O)CC4)nc3)cc12)c1ccccc1F (single isomer, unassigned) [Example 236]"
10000 to 25000,–,"COc1nc2ccc(-c3cnc(C(C)(C)O)nc3)cc2c(Nc2cc(C)ccc2C)c1C [Example 180, 2-(5-(4-(2,5-dimethylphenylamino)-2-methoxy-3-methylquinolin-6-yl)pyrimidin-2-yl)propan-2-ol]"
< 1000,–,"CC(C)(O)c1ncc(-c2ccc3ncc(Cl)c(NC(c4ccccc4F)C(F)F)c3c2)cn1 (single isomer, unassigned) [Example 55, 2-(5-(3-chloro-4-((2,2-difluoro-1-(2-fluorophenyl)ethyl)amino)quinolin-6-yl)pyrimidin-2-yl)propan-2-ol]"
< 1000,–,"Cc1nc2ccc(-c3cnc(C(C)(C)O)nc3)cc2c(N[C@H](C)c2cc(Cl)ccc2F)c1Cl [Example 406, (R)-2-(5-(3-chloro-4-((1-(5-chloro-2-fluorophenyl)ethyl)amino)-2-methylquinolin-6-yl)pyrimidin-2-yl)propan-2-ol]"
1000 to 10000,–,"Cc1nc2ccc(-c3cnc(C(C)(C)O)nc3)cc2c(N[C@H](C)c2cccc(OCC(=O)O)c2)c1Cl [Example 438, (R)-2-(3-(1-((3-chloro-6-(2-(2-hydroxypropan-2-yl)pyrimidin-5-yl)-2-methylquinolin-4-yl)amino)ethyl)phenoxy)acetic acid]"
10000 to 25000,–,"CC(C)(O)c1ncc(-c2ccc3ncc(Cl)c(NCc4ccc(C(F)(F)F)cc4)c3c2)cn1 [Example 145, 2-(5-(3-chloro-4-(4-(trifluoromethyl)benzylamino)quinolin-6-yl)pyrimidin-2-yl)propan-2-ol]"
1000 to 10000,–,"COc1ccc(F)c([C@@H](C)Nc2c(Cl)c(C)nc3ccccc23)c1 [Example 329, (R)-3-chloro-N-(1-(2-fluoro-5-methoxyphenyl)ethyl)-2-methylquinolin-4-amine]"
< 1000,–,"Cc1nc2c(F)cc(-c3cnc(C(C)(C)O)nc3)cc2c(N[C@H](C)c2cc(C#N)ccc2F)c1Cl [Example 302, (R)-3-(1-((3-chloro-8-fluoro-6-(2-(2-hydroxypropan-2-yl)pyrimidin-5-yl)-2-methylquinolin-4-yl)amino)ethyl)-4-fluorobenzonitrile]"
< 1000,–,"Cc1ccc(F)c([C@@H](C)Nc2c(Cl)c(C)nc3ccc(-c4cnc(C(C)(C)O)nc4)cc23)c1 [Example 334, (R)-2-(5-(3-chloro-4-((1-(2-fluoro-5-methylphenyl)ethyl)amino)-2-methylquinolin-6-yl)pyrimidin-2-yl)propan-2-ol]"
